According to patent US10710993B2, “Benzofuran pyrazole amine kinase inhibitor” (Hangzhou REX Pharmaceutical Co., LTD., priority 2016, dated 2020):
pIC50: −log10 of the molar value.

Key:
NCI-H3122 = assay: Cell proliferation experiment (Cell-Titer GLO), NCI-H3122; type: cell-based; conditions: Homo sapiens, 72 h
Procedure: (§1) Compounds to be tested: Positive compound Ceritinib and the compounds obtained by the examples of the present invention.
(§2) Cell lines: Karpas-299 and NCI-H3122 which were purchased from the Nanjing kebai biotechnology Co. LTD; TEL-ALK-F1174L-BaF3, TEL-ALK-G1202R-BaF3, TEL-ALK-C1156Y-BaF3 and TEL-ALK-L1196M-BaF3 which were purchased from Hefei zhongkopruisheng biological medicine technology Co. LTD.
(§3) Method: Cells were seeded in 96-well plates for 24 h in growth media containing 10% fetalbovine serum (FBS) and cultured overnight at 37° C. The following day, serial dilutions of compounds or appropriate control were added to the designated wells, and cells were incubated at 37° C. for 72 h. A Cell Titer Glo assay (Promega) was then performed to determine the relative cell numbers. IC50 values were calculated by concentration-response curve fitting using a four-parameter analytical method with Graphpad 6.0. Drug inhibition rate (%)=100%−[OD(Compound)−OD(blank)]/[OD(vehicle)−OD(blank)]×100% Equation: […]

TEL-ALK-C1156Y-BaF3 = target: T1, TEL-ALK-C1156Y-BaF3 (Homo sapiens, UniProt Q9UM73, C1156Y, cells depend on it); assay: Cell proliferation experiment (Cell-Titer GLO), TEL-ALK-C1156Y-BaF3; type: cell-based; conditions: 72 h, read-out: IC50 TEL-ALK C1156Y-BaF3
T1 construct: fused on or other part: TEL (ETV6) N-terminal oligomerising part fused before the ALK intracellular/kinase part; P41212 (Transcription factor ETV6)
T1 sequence (Q9UM73 whole entry C1156Y, the tested form may be a part): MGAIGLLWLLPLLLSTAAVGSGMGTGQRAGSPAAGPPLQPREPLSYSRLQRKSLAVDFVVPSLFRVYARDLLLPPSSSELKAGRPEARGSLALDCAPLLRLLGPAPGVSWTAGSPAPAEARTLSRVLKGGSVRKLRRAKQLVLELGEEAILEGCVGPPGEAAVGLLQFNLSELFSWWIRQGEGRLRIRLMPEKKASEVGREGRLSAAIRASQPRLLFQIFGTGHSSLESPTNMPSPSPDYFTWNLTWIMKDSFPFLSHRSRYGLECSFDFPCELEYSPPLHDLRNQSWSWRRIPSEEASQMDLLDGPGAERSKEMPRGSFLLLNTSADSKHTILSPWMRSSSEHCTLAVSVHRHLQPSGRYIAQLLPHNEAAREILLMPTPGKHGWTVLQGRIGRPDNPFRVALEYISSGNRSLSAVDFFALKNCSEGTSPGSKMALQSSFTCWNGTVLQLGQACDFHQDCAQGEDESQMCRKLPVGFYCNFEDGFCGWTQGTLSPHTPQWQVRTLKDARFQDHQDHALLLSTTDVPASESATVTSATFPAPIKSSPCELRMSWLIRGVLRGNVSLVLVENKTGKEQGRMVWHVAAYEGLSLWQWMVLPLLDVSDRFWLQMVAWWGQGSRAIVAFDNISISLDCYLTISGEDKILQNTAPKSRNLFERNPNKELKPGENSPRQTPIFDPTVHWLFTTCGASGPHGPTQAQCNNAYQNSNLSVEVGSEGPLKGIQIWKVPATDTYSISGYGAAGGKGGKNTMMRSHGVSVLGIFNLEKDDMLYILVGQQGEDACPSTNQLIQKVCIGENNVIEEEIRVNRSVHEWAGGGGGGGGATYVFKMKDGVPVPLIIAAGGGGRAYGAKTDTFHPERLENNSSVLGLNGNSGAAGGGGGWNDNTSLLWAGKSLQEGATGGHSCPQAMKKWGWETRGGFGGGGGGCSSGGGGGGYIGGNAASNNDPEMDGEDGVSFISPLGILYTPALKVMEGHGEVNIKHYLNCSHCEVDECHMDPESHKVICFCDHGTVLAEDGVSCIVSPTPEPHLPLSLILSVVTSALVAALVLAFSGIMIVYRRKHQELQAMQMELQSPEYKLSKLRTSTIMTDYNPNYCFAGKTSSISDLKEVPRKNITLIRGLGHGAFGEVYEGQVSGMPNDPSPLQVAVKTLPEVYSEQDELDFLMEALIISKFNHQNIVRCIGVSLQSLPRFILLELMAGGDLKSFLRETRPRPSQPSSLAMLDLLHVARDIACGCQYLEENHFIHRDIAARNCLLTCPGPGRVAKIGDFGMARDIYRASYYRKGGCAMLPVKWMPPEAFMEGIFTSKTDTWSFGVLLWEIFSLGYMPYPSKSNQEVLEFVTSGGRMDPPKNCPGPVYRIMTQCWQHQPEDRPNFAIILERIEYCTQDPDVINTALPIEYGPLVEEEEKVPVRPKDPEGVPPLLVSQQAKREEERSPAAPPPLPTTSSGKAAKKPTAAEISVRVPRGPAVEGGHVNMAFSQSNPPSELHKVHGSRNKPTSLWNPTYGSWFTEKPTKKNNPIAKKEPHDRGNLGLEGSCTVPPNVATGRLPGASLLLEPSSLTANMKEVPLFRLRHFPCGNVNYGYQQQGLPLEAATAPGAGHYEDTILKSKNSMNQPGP
Procedure: as §1, §2, §3

Karpas-299 = assay: Cell proliferation experiment (Cell-Titer GLO), Karpas-299; type: cell-based; conditions: Homo sapiens, 72 h
Procedure: as §1, §2, §3

TEL-ALK-L1196M-BaF3 = target: T2, TEL-ALK-L1196M-BaF3 (Homo sapiens, UniProt Q9UM73, L1196M, cells depend on it); assay: Cell proliferation experiment (Cell-Titer GLO), TEL-ALK-L1196M-BaF3; type: cell-based; conditions: 72 h, read-out: IC50 TEL-ALK L1196M-BaF3
T2 construct: fused on or other part: TEL (ETV6) N-terminal oligomerising part fused before the ALK intracellular/kinase part; P41212 (Transcription factor ETV6)
T2 sequence (Q9UM73 whole entry L1196M, the tested form may be a part): as the sequence (Q9UM73 whole entry C1156Y, the tested form may be a part) above, with Y1156C, L1196M counted along it
Procedure: as §2
Method: Cells were seeded in 96-well plates for 24 h in growth media containing 10% fetalbovine serum (FBS) and cultured overnight at 37° C. The following day, serial dilutions of compounds or appropriate control were added to the designated wells, and cells were incubated at 37° C. for 72 h. A Cell Titer Glo assay (Promega) was then performed to determine the relative cell numbers. IC50 values were calculated by concentration-response curve fitting using a four-parameter analytical method with Graphpad 6.0.

TEL-ALK-F1174L-BaF3 = target: T3, TEL-ALK-F1174L-BaF3 (Homo sapiens, UniProt Q9UM73, F1174L, cells depend on it); assay: Cell proliferation experiment (Cell-Titer GLO), TEL-ALK-F1174L-BaF3; type: cell-based; conditions: 72 h, read-out: IC50 TEL-ALK F1174L-BaF3
T3 construct: fused on or other part: TEL (ETV6) N-terminal oligomerising part fused before the ALK intracellular/kinase part; P41212 (Transcription factor ETV6)
T3 sequence (Q9UM73 whole entry F1174L, the tested form may be a part): as the sequence (Q9UM73 whole entry C1156Y, the tested form may be a part) above, with Y1156C, F1174L counted along it
Procedure: as §1, §2, §3

Wild-Type ALK = target: T4, Wild-Type ALK (Homo sapiens, UniProt Q9UM73); assay: Z'-LYTE (FRET) ALK kinase inhibitory activity; type: biochemical
T4 construct: purchased Life Technology
T4 sequence (Q9UM73 19-1620): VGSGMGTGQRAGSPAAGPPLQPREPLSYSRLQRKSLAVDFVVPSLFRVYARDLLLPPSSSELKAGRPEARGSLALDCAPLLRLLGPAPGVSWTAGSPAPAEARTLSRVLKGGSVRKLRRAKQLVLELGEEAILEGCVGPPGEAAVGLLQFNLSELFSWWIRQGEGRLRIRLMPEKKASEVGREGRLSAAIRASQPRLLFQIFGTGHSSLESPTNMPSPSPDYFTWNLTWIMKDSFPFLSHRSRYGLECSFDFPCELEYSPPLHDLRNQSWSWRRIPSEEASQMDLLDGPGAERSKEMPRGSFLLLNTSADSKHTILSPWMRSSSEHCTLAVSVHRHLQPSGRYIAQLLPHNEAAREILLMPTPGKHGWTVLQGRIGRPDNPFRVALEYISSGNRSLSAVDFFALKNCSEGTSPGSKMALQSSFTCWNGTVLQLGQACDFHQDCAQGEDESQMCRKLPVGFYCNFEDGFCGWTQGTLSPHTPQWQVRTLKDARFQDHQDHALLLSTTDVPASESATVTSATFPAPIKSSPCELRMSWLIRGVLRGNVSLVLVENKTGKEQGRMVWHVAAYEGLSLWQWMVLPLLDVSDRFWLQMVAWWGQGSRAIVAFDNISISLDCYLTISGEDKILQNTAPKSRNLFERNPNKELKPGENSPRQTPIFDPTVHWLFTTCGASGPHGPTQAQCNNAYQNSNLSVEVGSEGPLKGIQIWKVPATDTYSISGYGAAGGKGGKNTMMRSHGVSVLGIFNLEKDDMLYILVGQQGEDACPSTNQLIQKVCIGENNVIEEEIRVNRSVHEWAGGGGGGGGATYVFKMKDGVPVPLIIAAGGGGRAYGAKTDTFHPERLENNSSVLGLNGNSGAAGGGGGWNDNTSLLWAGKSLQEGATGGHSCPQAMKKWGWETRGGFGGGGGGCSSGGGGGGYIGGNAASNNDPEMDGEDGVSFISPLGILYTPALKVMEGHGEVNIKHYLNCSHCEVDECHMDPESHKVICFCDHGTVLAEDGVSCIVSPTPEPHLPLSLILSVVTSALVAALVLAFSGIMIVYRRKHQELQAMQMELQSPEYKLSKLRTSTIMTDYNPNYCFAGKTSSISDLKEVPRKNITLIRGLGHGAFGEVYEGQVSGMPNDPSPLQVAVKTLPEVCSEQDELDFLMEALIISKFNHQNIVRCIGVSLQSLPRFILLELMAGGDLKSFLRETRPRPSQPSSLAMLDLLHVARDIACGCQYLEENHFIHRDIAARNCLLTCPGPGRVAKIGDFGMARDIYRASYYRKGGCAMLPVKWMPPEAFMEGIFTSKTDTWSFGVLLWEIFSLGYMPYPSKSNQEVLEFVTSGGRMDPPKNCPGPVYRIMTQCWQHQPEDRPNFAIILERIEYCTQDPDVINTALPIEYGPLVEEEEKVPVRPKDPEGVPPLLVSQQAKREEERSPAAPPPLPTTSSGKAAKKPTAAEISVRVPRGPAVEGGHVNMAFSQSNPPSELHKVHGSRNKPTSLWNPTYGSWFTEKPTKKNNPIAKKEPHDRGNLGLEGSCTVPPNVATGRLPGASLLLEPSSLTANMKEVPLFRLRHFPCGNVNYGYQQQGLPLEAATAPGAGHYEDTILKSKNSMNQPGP
Procedure: (§4) The kinase activity assay was determined by using kinase assay panel (Life Technology) and the result was in table 1.

ALK L1196M = target: T5, ALK L1196M (Homo sapiens, UniProt Q9UM73, L1196M); assay: LanthaScreen Eu Kinase Binding Assay (TR-FRET) on ALK mutant
T5 construct: purchased Life Technology
T5 sequence (Q9UM73 19-1620 L1196M): as the sequence (Q9UM73 19-1620) above, with L1178M counted along it
Source text: Meanwhile, The LanthaScreen® Eu Kinase Binging Assay (TR-FRET) method was used for determining ALK Mutants (such as ALK L1196M) inhibitory activity IC50. LanthaScreen Eu kinase binding experiment detected Alexa Fluor conjugate or kinase “tracer” binding by adding Eu labeled antibodies or anti-label antibodies. The combination of tracer and antibody with kinase leads to a high level of FRET, whereas the use of kinase inhibitors in place of tracer may cause FRET loss.
as §4

TEL-ALK-G1202R-BaF3 = target: T6, TEL-ALK-G1202R-BaF3 (Homo sapiens, UniProt Q9UM73, G1202R, cells depend on it); assay: Cell proliferation experiment (Cell-Titer GLO), TEL-ALK-G1202R-BaF3; type: cell-based; conditions: 72 h, read-out: IC50 TEL-ALK G1202R-BaF3
T6 construct: fused on or other part: TEL (ETV6) N-terminal oligomerising part fused before the ALK intracellular/kinase part; P41212 (Transcription factor ETV6)
T6 sequence (Q9UM73 whole entry G1202R, the tested form may be a part): as the sequence (Q9UM73 whole entry C1156Y, the tested form may be a part) above, with Y1156C, G1202R counted along it
Procedure: as §1, §2, §3

[1] = tested on: zebrafish iridophore pigment cells; assay: Phenotypic screening of zebrafish: effect on iridophore pigment cells; type: in vivo, Zebrafish (Danio rerio); conditions: for IOD: added at 6 hpf, images at 3 dpf
Source text: Zebrafish (Danio rerio) is emerging as a predictive vertebrate animal model for in vivo assessment of drug efficacy, toxicity and safety. An important advantage of the zebrafish animal model is that the morphological and molecular basis of tissues and organs is either identical or similar to other vertebrates, including humans. The sequence and presumed function of many genes that are important for vertebrates are conserved in the zebrafish and the homology is as high as 85%. It has been shown that loss-of-function alleles for leukocyte tyrosine kinase (Ltk), the sister kinase to ALK, lack iridophores in zebrafish (Lopes, S. S., Yang, X., et al. (2008). Leukocyte tyrosine kinase functions in pigment cell development. PLoS Genet, 4.). Iridophores are neural crest-derived pigment cells that are clearly visible as shiny silver cells in the developing zebrafish embryo which distribute in the head, eyes, the lateral spine. ALK and LTK are sister kinase.
Therefore, using this principle, we investigated the effect of the compounds on normal zebrafish iridophore pigment cells to explore the compound's anti-ALK activity in vivo.
Method: Fish eggs of 6 hpf (hours post impurity) were randomly divided into groups. Then, subjects with different concentrations were added and the images were collected at 3 dpf (days post impurity). Then, the IOD (integrated option density) values of zebrafish dorsal iridophore pigment cells from the release pore to the caudal position were analyzed using ImageJ software. The Graphpad prism6.0 was used to conduct statistical analysis on Dunnett's t-test, and p<0.05 indicates statistical difference. The calculation formula of iridophore pigment inhibition rate is as follows: Inhibition rate (%)=[1−IOD(Compound)/IOD(vehicle)]×100%

NCI-H2228 tumor cells = assay: Subcutaneous NCI-H2228 lung cancer xenograft model; type: in vivo, BALB/C nude mice
Procedure: BALB/C nude mice were inoculated at the right flank with NCI-H2228 tumor cells to establish the human Lung cancer xenograft model. […] The drug was administered for 14 days and then discontinued for two weeks. The therapeutic effect was evaluated by calculating the relative tumor proliferation rate T/C (%), and the tolerability of treatment was evaluated by the body weight changes and death.
Tumor volume (TV) were measured twice per week in two dimensions using a caliper, and the volume were expressed in mm^3 using the formula: V=0.5 a×b^2 where a and b are the long and short diameters of the tumor, respectively.
Relative tumor volume RTV=Vt/V0, Vt=tumor volume of the drug-treated group on a given day of the study, V0=tumor volume of the drug-treated group on the initial day of dosing.
The T/C value (%) is an indicator of tumor response to treatment, and one of commonly used anti-tumor activity endpoint; T/C %=TRTV/CRTV×100% Relative Tumor Growth Inhibition; % TGI=(1−T/C)×100%;

| SMILES | pIC50 (NCI-H3122) | GI50 (TEL-ALK-C1156Y-BaF3) [nM] | pIC50 (Karpas-299) | GI50 (TEL-ALK-L1196M-BaF3) [nM] | GI50 (TEL-ALK-F1174L-BaF3) [nM] | pIC50 (Wild-Type ALK) | pIC50 (ALK L1196M) | GI50 (TEL-ALK-G1202R-BaF3) [nM] | also measured |
| --- | --- | --- | --- | --- | --- | --- | --- | --- | --- |
| Cc1cc(Nc2ncc(C(F)(F)F)c(Nc3cn(C)nc3S(=O)(=O)C(C)C)n2)c2c(c1C1CCNCC1)C[C@@H](C)O2 [REX-D3, (R)—N^2-(2,5-dimethyl-4-(piperidin-4-yl)-2,3-dihydrobenzofuran-7-yl)-N^4-(3-(isopropylsulfonyl)-1-methyl-1H-pyrazol-4-yl)-5-(trifluoromethyl)pyrimidine-2,4-diamine] | 7.97 | 10.5 | > 7.70 | 10.4 | < 10 | 7.80 | 8.90 | < 140 |  |
| Cc1cc(Nc2ncc(Cl)c(Nc3cn(C)nc3S(=O)(=O)C(C)C)n2)c2c(c1C1CCN(C)CC1)C[C@@H](C)O2 [REX-D2, (R)-5-chloro-N^2-(2,5-dimethyl-4-(1-methylpiperidin-4-yl)-2,3-dihydrobenzofuran-7-yl)-N^4-(3-(isopropylsulfonyl)-1-methyl-1H-pyrazol-4-yl)pyrimidine-2,4-diamine] | 7.97 | 10.4 | > 8.00 | 10.5 | < 10 | 7.88 | 9.16 | < 50 | IOD ([1]; 5 μM): 420.9 ± 34.1; IOD ([1]; 10 μM): 173.8 ± 20.5; IOD ([1]; 15 μM): 64.6 ± 16.1; IOD ([1]; 20 μM): 24.8 ± 5.8; inhibition at 5 µM ([1]; Danio rerio, 5 μM, iridophore pigment, 3 dpf, read-out: Inhibition rate %): 38%; inhibition at 10 µM ([1]; Danio rerio, 10 μM, iridophore pigment, 3 dpf, read-out: Inhibition rate %): 75%; inhibition at 15 µM ([1]; Danio rerio, 15 μM, iridophore pigment, 3 dpf, read-out: Inhibition rate %): 91%; inhibition at 20 µM ([1]; Danio rerio, 20 μM, iridophore pigment, 3 dpf, read-out: Inhibition rate %): 96%; inhibition of the formation of iridophore pigment cells ([1]; different doses of concentration): significant inhibition; TGI (NCI-H2228 tumor cells; 30 mg/kg PO QD 14 days, at 14 days after administration): 96.1%; tumor volume (NCI-H2228 tumor cells; 30 mg/kg PO QD 14 days, at 14 days after administration (first day after administration end)): 13 mm^3; TGI (NCI-H2228 tumor cells; 30 mg/kg PO QD 14 days, end of the experiment (15 days after the administration)): 98.8%; anti-tumor effect (NCI-H2228 tumor cells; 30 mg/kg, once a day, continuously for 14 days): significant anti-tumor effect |
| Cc1cc(Nc2ncc(C(F)(F)F)c(Nc3cn(C)nc3S(=O)(=O)C(C)C)n2)c2c(c1C1CCN(C)CC1)C[C@@H](C)O2 [REX-D4, (R)—N^2-(2,5-dimethyl-4-(1-methylpiperidin-4-yl)-2,3-dihydrobenzofuran-7-yl)-N^4-(3-(isopropylsulfonyl)-1-methyl-1H-pyrazol-4-yl)-5-(trifluoromethyl)pyrimidine-2,4-diamine] | 7.97 | 10.5 | > 8.00 | 10.5 | < 10 | 8.23 | 9.25 | < 50 |  |
